Data taken from patent US20230286970A1, “NOVEL OXADIAZOLE-BASED SELECTIVE HDAC6 INHIBITORS” (ITALFARMACO S.P.A., priority 2020, published 2023).

Assays:
[1] = test system: α-tubulin acetylation in 697 cell line; assay: In vitro α-tubulin acetylation in 697 cell line (ELISA); type: cell-based; conditions: 16 hours, read-out: fold increase @ 1 uM TubAc (ratio of acetylated tubulin and total tubulin towards control)
Protocol: The in vitro α-tubulin acetylation determination was evaluated on B 697 promyelocytic cell line.
The test molecules were diluted from 20 mM stock solution in DMSO with RPMI 10% FCS+0.01% DMSO medium at 20× concentration compared to the final concentration, added to the cells (15×10^6 cells in a total volume of 30 mL in RPMI medium 10% FCS+0.01% DMSO) to obtain the final concentrations of 1000, 333, 111, 37 nM and incubated at 37° C., 5% CO2 for 16 hours.
At the end of the incubation period, 5×10^6 cells were taken from each sample, centrifuged for 5 minutes at 1100 rpm and washed in 0.9% NaCl at 4° C. The resulting pellet was lysed by treating at 4° C. for 30 minutes with 150 μl of Complete Lysis-M buffer containing protease inhibitors (Complete Lysis-M Roche+Complete Tablets, Mini Easypack, cat: 4719956001) and phosphatase inhibitor cocktails (PhosStop Easypack, Roche, cat: 4906837001), then centrifuged 10 minutes at 14,000 rpm (20817×g). 0.3 μg of supernatant (total protein extract) were diluted in 100 μl of 1×PBS and immobilized in Maxisorp F96 NUN-IMMUNO Plate (Nunc MaxiSorp flat-bottom, Nunc, cat: 442404) at room temperature overnight. Plates were washed twice with Wash Buffer (PBS1×+0.005% tween 20) and saturated for 1 hour at room temperature with 300 μL of 1×PBS containing 10% FCS. After washing twice with Wash Buffer, the plates were incubated for two hours at room temperature in the presence of anti-acetylated-α-tubulin antibody (Monoclonal Anti-acetylated-tubulin clone 6-11B-1, mouse ascites fluid, Sigma, cat: T6793), 100 μl/well diluted 1:1000 in 1×PBS containing 10% FCS) or with total anti-α-tubulin antibody (Monoclonal Anti-alpha-tubulin produced in mouse, Sigma, cat: T6074). Following washing of the pates 5 times with Wash Buffer the secondary antibody conjugated with the enzyme HRP (Goat anti-Mouse IgG, IgM, IgA (H+L), Thermo Fisher Scientific, cat: A10668), diluted 1:1000 in 1×PBS+10% FBS was added at the volume of 100 μl/well.
After washing 4 times, 100 μl/well of TMB substrate kit was added for 10 minutes at room temperature in the dark. The reaction was stopped by adding 50 μl of 2N H2SO4. The plates were read at Multiskan Spectrum spectrophotometer at a wavelength of 450 nm.
The degree of acetylation was calculated by dividing the absorbance obtained for acetylated α-tubulin by the absorbance of total tubulin.
The results of tubulin acetylation, expressed as fold increase of ratio of acetylated α-tubulin/total α-tubulin, of each sample relative to the control sample (untreated) are summarized in table 6.

[2] = Stability in human plasma; conditions: after 4 hours, 37° C.
[3] = Stability to Phase I metabolism in rat S9 liver fraction; conditions: after 90 minutes, 37° C.
[4] = Stability in rat plasma; conditions: after 4 hours, 37° C.
[5] = biological target: recombinant human HDAC6 (Homo sapiens (Human), UniProt Q9UBN7); assay: Enzymatic screening, HDAC6 inhibition (fluorogenic FdL_G substrate); type: biochemical
Sequence of recombinant human HDAC6 (Q9UBN7 whole entry): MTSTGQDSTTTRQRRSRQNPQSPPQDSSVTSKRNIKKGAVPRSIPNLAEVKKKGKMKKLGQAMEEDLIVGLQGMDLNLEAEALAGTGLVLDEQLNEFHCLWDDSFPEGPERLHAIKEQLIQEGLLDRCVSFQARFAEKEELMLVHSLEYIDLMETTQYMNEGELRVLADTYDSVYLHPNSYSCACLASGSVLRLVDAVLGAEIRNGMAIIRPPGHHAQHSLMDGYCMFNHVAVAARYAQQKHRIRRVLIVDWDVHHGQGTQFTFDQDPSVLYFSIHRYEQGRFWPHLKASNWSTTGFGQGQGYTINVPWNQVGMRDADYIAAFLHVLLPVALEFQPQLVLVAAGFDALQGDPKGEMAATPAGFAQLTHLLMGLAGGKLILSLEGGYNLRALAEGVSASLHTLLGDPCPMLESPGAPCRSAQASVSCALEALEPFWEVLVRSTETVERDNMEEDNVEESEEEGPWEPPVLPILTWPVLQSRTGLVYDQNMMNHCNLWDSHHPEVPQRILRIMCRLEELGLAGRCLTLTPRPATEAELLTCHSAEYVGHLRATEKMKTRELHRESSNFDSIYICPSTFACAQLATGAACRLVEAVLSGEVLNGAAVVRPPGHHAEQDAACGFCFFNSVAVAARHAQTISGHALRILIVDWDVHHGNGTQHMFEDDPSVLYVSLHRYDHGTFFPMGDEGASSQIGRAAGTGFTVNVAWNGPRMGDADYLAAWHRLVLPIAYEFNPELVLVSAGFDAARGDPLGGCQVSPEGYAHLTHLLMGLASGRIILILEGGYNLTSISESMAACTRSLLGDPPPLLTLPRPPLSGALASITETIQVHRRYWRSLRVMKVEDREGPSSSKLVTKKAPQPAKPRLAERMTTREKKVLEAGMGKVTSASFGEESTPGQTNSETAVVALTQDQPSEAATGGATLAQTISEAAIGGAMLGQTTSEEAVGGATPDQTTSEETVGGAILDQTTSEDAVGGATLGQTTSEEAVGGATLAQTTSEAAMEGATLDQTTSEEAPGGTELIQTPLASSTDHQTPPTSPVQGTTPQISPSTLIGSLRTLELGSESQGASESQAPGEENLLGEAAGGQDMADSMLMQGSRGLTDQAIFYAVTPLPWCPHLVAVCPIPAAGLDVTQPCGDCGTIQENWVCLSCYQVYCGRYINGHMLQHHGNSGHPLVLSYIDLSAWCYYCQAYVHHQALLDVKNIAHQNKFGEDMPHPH
Procedure, shortened: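 Enzyme was preincubated with compound (8 doses, triplicate, 1% DMSO) in 25 mM Tris-HCl pH 8, 130 mM NaCl, 0.05% Tween-20, 10% glycerol, with BSA. A FLUOR DE LYS-Green substrate was then added, and fluorescence was read after developer plus 2 μM TSA.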

[6] = biological target: recombinant human HDAC1 (Homo sapiens (Human), UniProt Q13547); assay: Enzymatic screening, HDAC1 inhibition (fluorogenic FdL_G substrate); type: biochemical
Sequence of recombinant human HDAC1 (Q13547 whole entry): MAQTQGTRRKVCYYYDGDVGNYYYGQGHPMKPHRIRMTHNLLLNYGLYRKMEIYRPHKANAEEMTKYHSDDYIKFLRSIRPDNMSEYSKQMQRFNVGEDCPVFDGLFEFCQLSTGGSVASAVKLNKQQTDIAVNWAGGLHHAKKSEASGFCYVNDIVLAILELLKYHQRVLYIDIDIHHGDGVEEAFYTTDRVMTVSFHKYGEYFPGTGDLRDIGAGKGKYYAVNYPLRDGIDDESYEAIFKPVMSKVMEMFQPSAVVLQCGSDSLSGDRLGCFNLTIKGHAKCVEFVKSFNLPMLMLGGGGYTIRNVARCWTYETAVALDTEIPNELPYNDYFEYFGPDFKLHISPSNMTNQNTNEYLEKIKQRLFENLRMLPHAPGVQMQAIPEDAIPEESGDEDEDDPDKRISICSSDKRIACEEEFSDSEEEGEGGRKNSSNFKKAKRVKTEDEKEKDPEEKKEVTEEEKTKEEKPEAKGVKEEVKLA
Procedure, shortened: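 Recombinant human HDAC1 inhibition was measured fluorometrically using the FLUOR DE LYS-Green (FdL_G) substrate. Compounds at 8 doses (1% DMSO final) in Tris-HCl pH 8 buffer with NaCl, Tween-20 and glycerol were preincubated in triplicate with enzyme and 1 mg/mL BSA, then given substrate. Developer I plus 2 μM TSA was added, and fluorescence read after 25 minutes in the dark.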

[7] = Stability to Phase I metabolism in human S9 liver fraction; conditions: after 90 minutes, 37° C.

| SMILES | fold induction at 1 µM [1] | residual percentage in HUMAN PLASMA [2] [%] | residual percentage in RAT S9 FRACTION [3] [%] | residual percentage in RAT PLASMA [4] [%] | IC50 [5] [nM] | IC50 [6] [nM] | residual percentage in HUMAN S9 FRACTION [7] [%] |
| --- | --- | --- | --- | --- | --- | --- | --- |
| CNc1ccc2cc(-c3cn(Cc4ccc(-c5nnc(C(F)F)o5)cn4)nn3)ccc2n1 [compound 34, 6-(1-((5-(5-(difluoromethyl)-1,3,4-oxadiazol-2-yl)pyridin-2-yl)methyl)-1H-1,2,3-triazol-4-yl)-N-methylquinolin-2-amine] | 28 | 95 | 83 | 69 | 15 | > 200000 | 89 |
| O=C1Nc2ccc(-c3cn(Cc4ccc(-c5nnc(C(F)F)o5)cn4)nn3)cc2C12CCNC2 (single isomer, unassigned) [compound 274, 5-(1-((5-(5-(difluoromethyl)-1,3,4-oxadiazol-2-yl)pyridin-2-yl)methyl)-1H-1,2,3-triazol-4-yl)spiro[indoline-3,3′-pyrrolidin]-2-one] | 12 | 83 | 97 | 83 | 11 | > 200000 | 95 |
| NC(=O)c1cccc(-c2nnn(Cc3ccc(-c4nnc(C(F)F)o4)c(F)c3)n2)c1 [compound 89, 3-(2-(4-(5-(difluoromethyl)-1,3,4-oxadiazol-2-yl)-3-fluorobenzyl)-2H-tetrazol-5-yl)benzamide] | 8 | 81 | 98 | 82 | 34 | > 200000 | 96 |
| Nc1nc2ccc(-c3cn(Cc4ccc(-c5nnc(C(F)F)o5)cc4)nn3)cc2s1 [compound 14, 6-(1-(4-(5-(difluoromethyl)-1,3,4-oxadiazol-2-yl)benzyl)-1H-1,2,3-triazol-4-yl)benzo[d]thiazol-2-amine] | 19 | 72 | 95 | 83 | – | – | 93 |
| Nc1ccc(-c2cn(Cc3ccc(-c4nnc(C(F)F)o4)c(F)c3)nn2)cn1 [compound 15, 5-(1-(4-(5-(difluoromethyl)-1,3,4-oxadiazol-2-yl)-3-fluorobenzyl)-1H-1,2,3-triazol-4-yl)pyridin-2-amine] | 16 | 81 | 79 | 72 | – | – | 91 |
| CN1CCN(C(=O)Nc2cccc(-c3cn(Cc4ccc(-c5nnc(C(F)F)o5)cn4)nn3)c2)CC1 [Compd. 51, N-(3-(1-((5-(5-(difluoromethyl)-1,3,4-oxadiazol-2-yl)pyridin-2-yl)methyl)-1H-1,2,3-triazol-4-yl)phenyl)-4-methylpiperazine-1-carboxamide] | 26 | 90 | 62 | 79 | 22 | > 200000 | 90 |
| NC(=O)c1cccc(-c2nnn(Cc3ccc(-c4nnc(C(F)F)o4)cn3)n2)c1 [compound 29, 3-(2-((5-(5-(difluoromethyl)-1,3,4-oxadiazol-2-yl)pyridin-2-yl)methyl)-2H-tetrazol-5-yl)benzamide] | 15 | – | – | – | – | – | – |
